Experimental data published in patent publication US11779597B2, “Method of treating Parkinson's and other neurodegenerative diseases” (Vector Vitale IP LLC, priority 2019, dated 2023).

Experiments:
[1] = tested on: dopaminergic neurons in the black substance in rat models of Parkinson's disease (6-OHDA); test: Apomorphine test / destruction of dopaminergic neurons after prophylactic administration; format: in vivo; conditions: 6-OHDA rat models
Description: Methods: Adult mature rodents were used in the study. […] Before prophylactic administration of the experimental drugs, the animals underwent an open field test to assay their general locomotor activity levels and anxiety. The prophylactic course consisted of 10 daily intraperitoneal injections of the drugs (in the case of combination drug, its components were administered at an interval of 2 hours). After the end of prophylactic course, Parkinson's disease was modelled in the animals. […] Ten days after the last (second) apomorphine test, the animals' behavioral responses were assessed in the open field test followed by euthanasia and analysis of functional (metabolic and phenotypic) profiles of phagocytes of different localization. Thus, the study of the functional profile of phagocytes in rat models of Parkinson's disease was performed on day 28 after the end of the course of prophylactic treatment with the experimental drugs. Resident peritoneal macrophages were isolated from sterile cell suspension of peritoneal exudate; enrichment of the suspension was carried out by 2-hour adhesion. Non-adherent and dead cells were separated by centrifugation. Functional characteristics of circulating phagocytes (monocytes and neutrophils) were evaluated in whole blood taken into a tube containing EDTA used as an anticoagulant. Mononuclear and polymorphonuclear phagocytes were analyzed on a flow cytofluorimeter using a gating method. Phagocytes of microglia were isolated using a Percoll density gradient. To assess the phenotypic profile of phagocytes, expression indices of the pan-phagocytic marker CD14 (co-receptor of the bacterial lipopolysaccharide) and the marker of alternative polarization of phagocytes CD206 (mannose receptor 1) were used. […] The hemogram parameters were analyzed on the hematological analyzer Particle counter model PCE 210 (ERMA, Japan) adapted for the study of blood cells of rats and mice.

peritoneal macrophages = test: Functional profile of peritoneal macrophages in 6-OHDA rat models after prophylactic administration; format: in vivo; conditions: prophylactic i.p.
Description: Methods: Adult mature rodents were used in the study. […] Before prophylactic administration of the experimental drugs, the animals underwent an open field test to assay their general locomotor activity levels and anxiety. The prophylactic course consisted of 10 daily intraperitoneal injections of the drugs (in the case of combination drug, its components were administered at an interval of 2 hours). After the end of prophylactic course, Parkinson's disease was modelled in the animals. […] Ten days after the last (second) apomorphine test, the animals' behavioral responses were assessed in the open field test followed by euthanasia and analysis of functional (metabolic and phenotypic) profiles of phagocytes of different localization. Thus, the study of the functional profile of phagocytes in rat models of Parkinson's disease was performed on day 28 after the end of the course of prophylactic treatment with the experimental drugs. Resident peritoneal macrophages were isolated from sterile cell suspension of peritoneal exudate; enrichment of the suspension was carried out by 2-hour adhesion. Non-adherent and dead cells were separated by centrifugation. Functional characteristics of circulating phagocytes (monocytes and neutrophils) were evaluated in whole blood taken into a tube containing EDTA used as an anticoagulant. Mononuclear and polymorphonuclear phagocytes were analyzed on a flow cytofluorimeter using a gating method. Phagocytes of microglia were isolated using a Percoll density gradient. To assess the phenotypic profile of phagocytes, expression indices of the pan-phagocytic marker CD14 (co-receptor of the bacterial lipopolysaccharide) and the marker of alternative polarization of phagocytes CD206 (mannose receptor 1) were used. To characterize the metabolic profile, oxidative metabolism and phagocytic activity of microglia as well as the pathway of arginine metabolism were studied using flow cytometry and spectrometric methods respectively. FITC-labeled Staphylococcus aureus Wood 46 was used as the object of phagocytosis. The hemogram parameters were analyzed on the hematological analyzer Particle counter model PCE 210 (ERMA, Japan) adapted for the study of blood cells of rats and mice.

rat microglial cells = test: Metabolic profile of nonsensitized rat microglial cells in vitro; format: cell-based
Description: (§1) Materials and methods: Rat microglial cells were isolated by mechanical (cell sieves) disintegration of the brain tissue (FIG. 30A, FIG. 30B and FIG. 30C) followed by fractionation of the tissue homogenate in Percoll density gradient (Microglia: Methods and Protocols, Edited by Bertrand Josef and Jose Luis Venero, Springer protocol. Humana Press, 2013, 350 p.) (FIG. 31). Before the collection of the brain tissue, decapitation was performed to avoid hemorrhage to the brain during sampling (FIG. 32). Decapitation was performed immediately after anesthesia to minimize the death of brain tissue, including microglial cells. All manipulations for the isolation of microglial cells were carried out using coolants. Circulating neutrophils were isolated from venous blood taken into a tube containing EDTA in a two-step Percoll gradient (Alsharif K F et al. Vascul Pharmacol. 2015 August; 71:201-7. doi: 10.1016/j.vph.2015.02.006)(FIG. 33A and FIG. 33B). Circulating monocytes were isolated from venous blood collected into a tube containing heparin in a two-step Hypaque gradient (Macrophages and dendritic cells: Methods and Protocols, Edited by Neil E. Reiner, NY, Humana Press, 2009: 368 P). The metabolic profile of phagocytes was characterized based on the pathway of arginine metabolism (levels of arginase activity and NO synthesis measured using photocolorimetric methods), the level of formation of intracellular reactive oxygen species (ROS) by esterases and the indices of phagocytic activity determined by flow cytofluorimetry, as well as according to the activation levels of NADH and NADPH oxidases determined in NBT test. Duration of treatment of phagocytes of all the above mentioned populations varied depending on the methodological characteristics of metabolic response. A 90 minute exposure to the drugs according to Kim et al., 1977 (cited above) was used to analyze their effects on oxidative metabolism and phagocytic activity. An 18 hour exposure according to Lastra et al., 2001 (cited above) was used to analyze the drug effects on arginine metabolic pathway. To analyze the effects of the drugs under study on the induced (stimulated) metabolic activity of phagocytes, the cells were treated with lipopolysaccharide (LPS) from E. coli (Sigma, USA) according to Haddad et al., 2009 (cited above).

[2] = tested on: rat peripheral blood monocytes; test: Metabolic profile of nonsensitized rat peripheral blood monocytes in vitro; format: cell-based
Description: as §1

Water content of feces = format: in vivo; conditions: LPS rat models; administration during 10 days
Description: Feces were collected on the 8th, 21st and 28th days of the experiment. They were weighed (wet weight mww) and dried in a thermostat at t=60° C. for 24 hours and then weighed again (dry weight mdw). The water content of feces (M) was calculated as the percentage difference between wet and dry weight of feces according to the following formula: M=100−(mdw×100%/mww).
On the 1st day of the experiment, rats were either operated to model hemi-parkinsonism or sham operated. From the 9th to the 18th day of the experiment, the animals were injected either deuterium-depleted water or the test substance, according to their allocation into groups, for 10 days. On the 8th day of the experiment (before initiation of treatment—apomorphine test I) and on the 21st day of the experiment (after the end of administering the test substance —apomorphine test II) the animals underwent an apomorphine test to analyze the development of hemi-parkinsonism which correlates with the number of destroyed dopaminergic neurons. In addition, a follow-up analysis of fecal water content was carried out, i.e., before the start of treatment on the 8th day after the operation, as well as on the 21st (after the end of treatment) and the 28th day (before autopsy). On the 24th day of the experiment, behavioral tests were carried out in all groups. All animals were weighed before autopsy. […]

[3] = regardless of the concentration, in vitro

Substance: ^64Zn-enriched zinc aspartate [^64Zne-asp]
- Number of animals with 100% destruction of neurons (%) ([1]; prophylactic 10 daily i.p. injections, at completion of the experiment): 35%
- Rate of rotational movements in animals with 100% destruction of neurons (r/30 min) ([1]; prophylactic i.p., apomorphine test): 224.3 ± 35.9 r/30 min
- animals with complete loss of neurons, less than in the control ([1]; prophylactic i.p., versus control 75%): over 50%
- CD206 expression level in CD14+ peritoneal phagocytes (peritoneal macrophages): further decrease
- NO synthesis by peritoneal macrophages (peritoneal macrophages): prevented an increase
- arginase activity of peritoneal macrophages (peritoneal macrophages): absence of any changes
- phagocytosis by peritoneal macrophages (peritoneal macrophages): prevented an increase
- NO synthesis by peritoneal macrophages (peritoneal macrophages; listed as zinc-based drug): decrease
- arginase activity of microglial cells on the background of LPS treatment (rat microglial cells; 2.5 μg/ml): moderately strengthened
- LPS-stimulated activity of NO synthase (synthesis of nitrites) in microglial cells (rat microglial cells; 10 μg/ml): decreased
- ROS production stimulated by LPS in microglial cells (rat microglial cells; 20 and 5 μg/ml): significantly inhibited
- spontaneous esterase-dependent oxidative metabolism (intracellular ROS) in microglial cells (rat microglial cells; 20 and 10 μg/ml): stimulated
- number of phagocytic cells in the microglial population (rat microglial cells; all concentrations studied): without affecting
- phagocytic activity of microglial cells (rat microglial cells; all concentrations studied): moderately increased
- spontaneous esterase-dependent oxidative metabolism (intracellular ROS) in microglial cells (rat microglial cells; concentrations ≤5 μg/ml): no statistically significant effect
- ROS production stimulated by LPS in microglial cells (rat microglial cells; other concentrations): did not have any effect
- spontaneous arginase activity of nonsensitized microglial cells (rat microglial cells; [3]): virtually no effect
- spontaneous nitric oxide production by nonsensitized microglial cells (rat microglial cells; [3]): reduced
- LPS-stimulated oxidase-dependent respiratory burst of monocytes [2]: no effect
- production of nitric oxide by monocytes treated with LPS [2]: moderately increased
- spontaneous esterase-dependent intracellular ROS production by monocytes [2]: decrease
- intracellular ROS production by bacterial LPS-treated monocytes ([2]; 10 μg/ml): statistically significantly reduced
- spontaneous oxidative metabolism dependent on NADH and NADPH oxidases (NBT test) in monocytes ([2]; 10 μg/ml): slightly increased
- phagocytic activity of monocytes ([2]; concentrations ≤5 μg/ml): reduced
- spontaneous production of nitrites by nonsensitized circulating monocytes ([2]; regardless of the concentration): did not change significantly
- arginase activity of monocytes ([2]; resting cells and bacterial LPS-treated cells): absent
- water content of feces (Water content of feces): did not cause any significant changes
